Assay results from patent US11890335B2, “ErbB peptide pharmaceutical and vaccine compositions and therapeutic uses thereof for cancer” (L2 Diagnostics, LLC, priority 2017, dated 2024).
“Also recorded” adds a separate entry of the source. *1 amine or outer side, *2 acyl side, *3 side chain or, on linkers, in order; H or OH if unused. Where a SMILES comes first, the peptide text is derived from it. [ ]: non-standard residue; d: D form. βAsp = O=C(O)[C@H](CC(=O)[*:2])N[*:1]

What was measured:
[1] = system: human EGFR on A431 cells; assay: Flow cytometry, binding to A431 cells; details: for Staining of A431 cells by flow cytometry: serum 1:100 or cetuximab 5 μg/ml
Procedure: (§1) Cells (10^5 cells/sample) were stained with a 1:100 dilution of serum in PBS with 0.1% BSA and 0.05% sodium azide for 1 h at 4° C. Cells were washed and incubated with a 1:100 dilution of either anti-mouse IgG fluorescein isothiocyanate (FITC; Sigma) or anti-human IgG AlexaFluor 488 (Molecular Probes, Invitrogen) for 1 h at 4° C. Some samples were further stained using anti-FITC AlexaFluor 488. Cells were washed and fixed in PBS+1% paraformaldehyde. Cells were analyzed on a FACSCalibur (BD Biosciences) with FlowJo software (Tree Star). Controls included unstained cells and cells stained with secondary antibody alone.

[2] = biological target: T1, recombinant HER2 extracellular domain (Homo sapiens, UniProt P04626); assay: ELISA, immune serum binding to recombinant HER2 extracellular domain; details: serum 1:100 dilution
T1 construct: The extracellular domain of HER2 was a kind gift of Dr. Daniel Leahy
Procedure: (§2) Polystyrene microtiter plates (Nunc) were coated with either 50 μg/ml peptide or 1 μg of rHER2 or rHER3 extracellular domains in buffer (0.05 M carbonate-bicarbonate buffer, pH 9.6; Sigma) and incubated overnight at 4° C. Wells were washed, blocked with PBS containing 3% bovine serum albumin (BSA) followed by the addition of serum samples (1:100 dilution) for 2 h at room temperature. Alkaline phosphatase conjugated-goat anti-mouse IgG antibody (Southern Biotech) was added to the wells at a 1:1000 dilution and incubated at room temperature for 1.5 h. Wells were washed one last time, and developed by the addition of the substrate p-nitrophenyl phosphate (Sigma). Wells were read on a SpectraMax 450 ELISA reader (Molecular Dynamics) at 405 nm.

[3] = system: MDA-MB-453 cells (HER2-positive, EGFR-negative); assay: Flow cytometry, binding to MDA-MB-453 cells; design: species or system human; details: serum 1:100 or antibody 5 μg/ml
Procedure: as §1

[4] = system: TUBO-EGFR cells; assay: In vivo tumor assay, TUBO-EGFR cells s.c. in immunized mice; details: immunized Balb/c mice, days 11, 13 and 18
Source text: (§3) Female Balb/c or female C57BL/6 mice, 6-8 weeks old, were obtained from the National Cancer Institute. All mice were housed at the Yale University School of Medicine Animal Facility. All protocols were consistent with accepted guidelines of the National Institutes of Health for the care and use of laboratory animals as well as approved by the Yale University Institutional Animal Care and Use Committee. For the generation of antibody, three to five Balb/c or C57BL/6 mice per group were immunized intraperitoneally and subcutaneously in one footpad with 100 μg of peptide emulsified 1:1 of PBS and complete Freund's adjuvant (CFA). Twenty-one days later, mice were boosted intraperitoneally and subcutaneously in the other footpad with 100 μg of immunizing peptide emulsified in incomplete Freund's adjuvant (IFA). Sera were collected via retro-orbital bleed at day 28 for antibody analyses. For T cell assays, mice were immunized by the same route of administration with 100 μg of peptide emulsified 1:1 in CFA. […]
Female Balb/c mice were immunized with either Asp or isoAsp EGFR p580 as described above for the generation of antibody. […] Tumor volume was calculated by measuring three orthogonal axes (a, b, and c) with digital calipers, with the tumor volume=abc/2 (Cho H S et al. (2003) Nature 421:756-60).

[5] = system: EGFR peptides; assay: ELISA, antisera against the panel of EGFR peptides; format: binding, murine (mu) and human (hu); details: 100 μg peptide in CFA, boost in IFA, sera day 28
Source text: as §3
Polystyrene microtiter plates (Nunc) were coated with either 50 μg/ml peptide or 1 μg of rHER2 or rHER3 extracellular domains in buffer (0.05 M carbonate-bicarbonate buffer, pH 9.6; Sigma) and incubated overnight at 4° C. […] Wells were read on a SpectraMax 450 ELISA reader (Molecular Dynamics) at 405 nm.

[6] = biological target: T2, HER2 p585 peptide (Homo sapiens, UniProt P04626); assay: ELISA, immune serum binding to HER2 p585 peptide; details: sera from Balb/c mice
T2 construct: host or cells: chemical synthesis
Procedure: as §2

[7] = biological target: T3, HER3 p574 peptide (Homo sapiens, UniProt P21860); assay: ELISA, immune serum binding to HER3 p574 peptide; details: sera from Balb/c mice
T3 construct: host or cells: chemical synthesis
Procedure: as §2

[8] = biological target: T4, HER4 p578 peptide (Homo sapiens, UniProt Q15303); assay: ELISA, immune serum binding to HER4 p578 peptide; details: data not shown
T4 construct: host or cells: chemical synthesis
Procedure: as §2

[9] = system: T cells from EGFR p580 immunized mice; assay: T cell proliferation assay, 3H-thymidine; format: cell-based; details: lymph node cells of immunized C57BL/6 mice re-stimulated 72 h with peptide
[10] = biological target: T5, recombinant HER3 extracellular domain (Homo sapiens, UniProt P21860); assay: ELISA, immune serum binding to recombinant HER3 extracellular domain; details: serum 1:100 dilution
T5 construct: Recombinant human HER3 extracellular domain was purchased from R&D Systems; purchased R&D Systems
Procedure: as §2

[11] = system: A431 cells; assay: ADCC assay with human PBMC, A431 cells; format: cell-based; details: 1:25 serum or 20 μg/ml antibody, human PBMC 50:1, 4 h
Procedure: (§4) All experimental sera were heat-inactivated (56° C., 30 min) prior to use. A431 or MDA-MB-453 cells were incubated with a 1:25 dilution of heat-inactivated sera or control antibody (20 μg/ml) 30 min at 37° C. in 96-well U bottom plates. Freshly isolated human peripheral blood mononuclear cells (PBMC) from healthy donors were incubated with antibody coated target cells at a 50:1 effector to target ratio for 4 h at 37° C. Fifty microliters of each cell culture supernatant was then assayed for lactate dehydrogenase released from dead cells using the CytoTox96 Non-Radioactive Cytotoxicity Assay (Promega) per manufacturer's instructions. Percent cytotoxicity was calculated as [(experimental-effector spontaneous-target spontaneous)/(target maximum-target spontaneous)]×100.

[12] = system: MDA-MB-453 cells; assay: ADCC assay with human PBMC, MDA-MB-453 cells; format: cell-based; details: 1:25 serum or 20 μg/ml antibody, human PBMC 50:1, 4 h, compared to rituximab
Procedure: as §4

[13] = mouse, in vivo
[14] = system: MDA-MB-453 cells; details: control antibodies, 10-40 mg/ml concentrations tested
Procedure: Cells were incubated for three days with 1:25 dilutions of sera from either Asp or isoAsp p580 immunized Balb/c mice. Cell proliferation was measured by 3H-thymidine incorporation.

[15] = system: A431 cells; details: isotype control 10 μg/ml, data not shown
[16] = biological target: native HER2 (Homo sapiens, UniProt P04626); details: Garrett J T et al. (2007); cited from earlier work

T5 sequence (P21860 20-643 limits assumed): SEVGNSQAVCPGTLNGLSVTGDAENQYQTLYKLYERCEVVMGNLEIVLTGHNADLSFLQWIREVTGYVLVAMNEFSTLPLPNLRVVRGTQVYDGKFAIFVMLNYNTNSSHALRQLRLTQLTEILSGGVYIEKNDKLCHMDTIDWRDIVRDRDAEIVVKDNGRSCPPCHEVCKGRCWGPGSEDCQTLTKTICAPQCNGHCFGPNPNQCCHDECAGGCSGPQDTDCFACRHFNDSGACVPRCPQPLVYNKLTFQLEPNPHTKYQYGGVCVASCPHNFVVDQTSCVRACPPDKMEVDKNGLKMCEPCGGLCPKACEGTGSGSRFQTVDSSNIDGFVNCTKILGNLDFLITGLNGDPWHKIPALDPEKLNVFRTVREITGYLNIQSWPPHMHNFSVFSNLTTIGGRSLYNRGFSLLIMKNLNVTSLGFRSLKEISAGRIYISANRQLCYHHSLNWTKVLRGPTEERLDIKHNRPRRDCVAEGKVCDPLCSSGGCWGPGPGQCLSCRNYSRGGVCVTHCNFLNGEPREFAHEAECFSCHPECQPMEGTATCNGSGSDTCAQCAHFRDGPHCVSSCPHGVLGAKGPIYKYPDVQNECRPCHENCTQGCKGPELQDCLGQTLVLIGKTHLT

CC[C@H](C)[C@H](N)C(=O)N[C@@H](CCC(N)=O)C(=O)N[C@@H](CS)C(=O)N[C@@H](C)C(=O)N[C@@H](Cc1c[nH]cn1)C(=O)N[C@@H](Cc1ccc(O)cc1)C(=O)N[C@H](C(=O)N[C@@H](CC(=O)O)C(=O)NCC(=O)N1CCC[C@H]1C(=O)N[C@@H](Cc1c[nH]cn1)C(=O)N[C@@H](CS)C(=O)N[C@H](C(=O)N[C@@H](CCCCN)C(=O)N[C@H](C(=O)N[C@@H](CS)C(=O)N1CCC[C@H]1C(=O)N[C@@H](C)C(=O)NCC(=O)O)[C@@H](C)O)C(C)C)[C@@H](C)CC [Asp EGFR p580] (H-IQCAHYIDGPHCVKTCPAG-OH; N-terminus and C-terminus assumed)
Staining of A431 cells by flow cytometry [1]: stained A431 cells above that seen with pre-immune sera
Immune serum binding to HER2 extracellular domain by ELISA [2]: bound
Binding to MDA-MB-453 cells by flow cytometry [3]: showed affinity
Tumor size versus adjuvant alone (PBS-CFA) [4]: significantly smaller tumors
Antibodies elicited by immunization, binding to EGFR peptides by ELISA [5]: generated antibodies against Asp and iso-Asp p580, as well as Asp and iso-Asp p572 and Asp p596
Immune serum binding to HER2 p585 peptide by ELISA [6]: bound
Immune serum binding to HER3 p574 peptide by ELISA [7]: bound
Immune serum binding to homologous HER4 p578 peptide [8]: neither Asp nor isoAsp EGFR p580 antisera bound; also recorded: neither the Asp nor iso-Asp EGFR p580 antiserum bound
T cell response to Asp and iso-Asp p580 [9]: strong T cell responses to both Asp and iso-Asp p580
Immune serum binding to HER3 extracellular domain by ELISA [10]: bound

CC[C@H](C)[C@H](N)C(=O)N[C@@H](CCC(N)=O)C(=O)N[C@@H](CS)C(=O)N[C@@H](C)C(=O)N[C@@H](Cc1c[nH]cn1)C(=O)N[C@@H](Cc1ccc(O)cc1)C(=O)N[C@H](C(=O)N[C@@H](CC(=O)NCC(=O)N1CCC[C@H]1C(=O)N[C@@H](Cc1c[nH]cn1)C(=O)N[C@@H](CS)C(=O)N[C@H](C(=O)N[C@@H](CCCCN)C(=O)N[C@H](C(=O)N[C@@H](CS)C(=O)N1CCC[C@H]1C(=O)N[C@@H](C)C(=O)NCC(=O)O)[C@@H](C)O)C(C)C)C(=O)O)[C@@H](C)CC [isoAsp EGFR p580] (H-IQCAHYI[βAsp]GPHCVKTCPAG-OH; N-terminus and C-terminus assumed)
Binding to A431 cells relative to Asp-isoform counterpart ([1]; flow cytometry): ~10 fold
Shift in staining intensity of A431 cells ([1]; immune sera, flow cytometry): > 10 fold
Immune serum binding to HER2 extracellular domain by ELISA [2]: bound
Binding to MDA-MB-453 cells by flow cytometry [3]: showed affinity
Tumor size versus adjuvant alone (PBS-CFA) [4]: significantly smaller tumors
Antibodies elicited by immunization, binding to EGFR peptides by ELISA [5]: sera bound strongly to both isoforms of p572 and Asp 596
Immune serum binding to HER2 p585 peptide by ELISA [6]: bound
Immune serum binding to HER3 p574 peptide by ELISA [7]: bound
Immune serum binding to homologous HER4 p578 peptide [8]: neither Asp nor isoAsp EGFR p580 antisera bound
Immune serum binding to homologous HER4 p578 peptide ([8]; listed as iso-Asp EGFR p580): neither the Asp nor iso-Asp EGFR p580 antiserum bound
T cell response to Asp and iso-Asp p580 [9]: more robust response
Immune serum binding to HER3 extracellular domain by ELISA [10]: bound

IQCAHYIDGPHCVKTCPAG [EGFR p580]
Staining of A431 cells by flow cytometry [1]: bind to the EGFR overexpressing human A431 epidermoid carcinoma cell line at an epitope distinct from that recognized by cetuximab
ADCC killing of A431 cells [11]: exhibited significant killing
ADCC killing of MDA-MB-453 cells [12]: significantly induced ADCC killing
Autoimmunity, fur loss or skin pathology in immunized mice [13]: no signs of aberrant tissue autoimmunity

Rituximab: human anti-CD20 monoclonal antibody
MDA-MB-453 cell growth inhibition [14]: failed to inhibit
A431 cell growth inhibition [15]: did not inhibit any A431 growth

VACAHYKDPPFCVA [p585-598 HER2 peptide]
Elicited antibodies binding to native HER2 [16]: failed to elicit antibodies that bound strongly to native HER2
